Test results taken from patent US20260209234A1, “SUBSTITUTED DIHYDROPYRROLO[3,4-D]PYRIMIDINE COMPOUNDS AND THEIR USE IN TREATING MEDICAL CONDITIONS” (Karuna Therapeutics, Inc., priority 2022, published 2026).

What was measured:
hM4 receptors = molecular target: T1, hM4 receptors (Homo sapiens, UniProt P08173); assay: Human M4 PAM pERK assay; type: cell-based; conditions: CHO cells expressing hM4; EC20 of acetylcholine (10 nM final); TR-FRET
T1 construct: expressed in transfected cells; host or cells: CHO cells
T1 sequence (P08173 1-479): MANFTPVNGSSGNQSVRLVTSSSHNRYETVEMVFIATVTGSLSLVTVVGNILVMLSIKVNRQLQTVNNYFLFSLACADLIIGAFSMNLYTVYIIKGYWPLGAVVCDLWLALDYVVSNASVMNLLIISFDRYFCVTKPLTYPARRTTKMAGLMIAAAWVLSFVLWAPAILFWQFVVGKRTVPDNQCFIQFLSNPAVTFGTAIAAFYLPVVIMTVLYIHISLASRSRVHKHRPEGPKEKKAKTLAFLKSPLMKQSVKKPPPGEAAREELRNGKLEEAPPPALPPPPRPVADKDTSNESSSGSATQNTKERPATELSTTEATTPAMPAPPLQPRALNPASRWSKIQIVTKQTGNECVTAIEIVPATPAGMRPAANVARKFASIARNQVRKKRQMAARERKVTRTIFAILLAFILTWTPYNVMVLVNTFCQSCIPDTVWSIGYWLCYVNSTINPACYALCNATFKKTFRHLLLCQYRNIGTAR
Method: (§1) Chinese hamster ovary (CHO) cells expressing either hM4 or rM4 receptors were frozen in assay ready vials (5×10^6 cells/vial) after bulking-up in culture. The day before an assay, vial(s) were thawed and cells seeded in 384 well white proxiplates at 1000/well for hM4 cells and at 2000/well for rM4 cells, in 10 μL of growth media (Hams/F12 with glutamax and 10% FCS) and incubated overnight at 37° C./5% CO2.
(§2) On the following morning, the growth media was removed by ‘flicking out’ over a bin, patting the inverted plate onto tissue, and then replacing with 10 μL of wash media (Hams/F12 with glutamax and 8 mM HEPES, NB: serum free). Then, the wash media was removed in the same way and replaced with 8 μL/well of the serum free media. Plates were then re-incubated for a further 4 hours at 37° C./5% CO2.
(§3) Compounds for testing were solubilized to 10 mM in DMSO and compound addition plates, consisting of ten-point concentration response curves (CRC) in duplicate points (10 μM top concentration, 1/2 log dilution series), were prepared by acoustic dispensing and the compound management group.
(§4) After the 4-hour incubation in serum free media, a 4 μL aliquot of the 3× compound solution containing an EC20 of acetylcholine (10 nM final concentration) was added to the cell plate using a 384 well plate to plate transfer. Then, the plate lid was replaced, and the cells incubated for 5 mins at 37° C./5% CO2. Following this final incubation, all cellular processes were stopped by the addition of 4 μL/well of lysis and blocking buffer and plates were incubated for 30 minutes at RT on an orbital shaker (gentle setting). Then, a final addition of 4 μL/well of antibody detection mix, containing both the Europium-Cryptate (donor) and d2 (acceptor) tagged detection components, was added followed by a further 2-hour incubation at RT, and then the plate was read using a TR-FRET (time resolved fluorescence resonance energy transfer) based protocol.

rM4 receptors = molecular target: T2, rM4 receptors (Rattus norvegicus, UniProt P08485); assay: Rat M4 PAM pERK assay; type: cell-based; conditions: CHO cells expressing rM4; EC20 of acetylcholine (10 nM final); TR-FRET
T2 construct: expressed in transfected cells; host or cells: CHO cells
T2 sequence (P08485 1-478): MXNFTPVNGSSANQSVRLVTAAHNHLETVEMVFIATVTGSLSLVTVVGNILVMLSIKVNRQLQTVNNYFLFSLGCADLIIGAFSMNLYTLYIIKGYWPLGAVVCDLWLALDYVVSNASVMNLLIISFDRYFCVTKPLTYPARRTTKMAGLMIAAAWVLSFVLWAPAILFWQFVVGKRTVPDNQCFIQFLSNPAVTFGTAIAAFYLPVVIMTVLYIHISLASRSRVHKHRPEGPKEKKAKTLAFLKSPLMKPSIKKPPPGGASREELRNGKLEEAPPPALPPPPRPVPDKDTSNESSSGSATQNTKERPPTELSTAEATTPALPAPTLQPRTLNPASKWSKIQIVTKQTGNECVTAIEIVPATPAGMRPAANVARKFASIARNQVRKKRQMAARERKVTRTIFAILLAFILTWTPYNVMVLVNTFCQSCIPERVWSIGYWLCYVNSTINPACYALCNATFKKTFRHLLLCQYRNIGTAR
Method: as §1, §2, §3, §4

| SMILES | EC50 (hM4 receptors) [µM] | EC50 (rM4 receptors) [µM] |
| --- | --- | --- |
| COc1cc(N2CC(CC(=O)N3Cc4nc(C#N)nc(OC)c4C3C)C2)ccn1 (single isomer, unassigned) [Compound I-18, 4-Methoxy-6-(2-(1-(2-methoxypyridin-4-yl)azetidin-3-yl)acetyl)-5-methyl-6,7-dihydro-5H-pyrrolo[3,4-d]pyrimidine-2-carbonitrile] | ≤ 0.1 | 0.5 to 2 |
| COc1nc(C#N)nc2c1C(C)N(C(=O)CC1CN(c3cncnc3)C1)C2 (single isomer, unassigned) [Compound I-26, 4-Methoxy-5-methyl-6-(2-(1-(pyrimidin-5-yl)azetidin-3-yl)acetyl)-6,7-dihydro-5H-pyrrolo[3,4-d]pyrimidine-2-carbonitrile] | 0.5 to 2 | ≥ 2 |
| Cc1nc2c(c(NC3CC3)n1)CN(C(=O)CC1CN(c3cccnc3)C1)C2 [Compound I-73, 1-(4-(Cyclopropylamino)-2-methyl-5,7-dihydro-6H-pyrrolo[3,4-d]pyrimidin-6-yl)-2-(1-(pyridin-3-yl)azetidin-3-yl)ethan-1-one] | 0.5 to 2 | ≥ 2 |
| COc1cc(N2CC(CC(=O)N3Cc4nc(C#N)nc(OC)c4C3C)C2)ccn1 (single isomer, unassigned) [Compound I-17, 4-Methoxy-6-(2-(1-(2-methoxypyridin-4-yl)azetidin-3-yl)acetyl)-5-methyl-6,7-dihydro-5H-pyrrolo[3,4-d]pyrimidine-2-carbonitrile] | ≥ 2 | ≥ 2 |
| COc1nc(C#N)nc2c1C(C)N(C(=O)CC1CN(c3ncns3)C1)C2 (single isomer, unassigned) [Compound I-3, 6-(2-(1-(1,2,4-Thiadiazol-5-yl)azetidin-3-yl)acetyl)-4-methoxy-5-methyl-6,7-dihydro-5H-pyrrolo[3,4-d]pyrimidine-2-carbonitrile] | 0.1 to 0.5 | 0.5 to 2 |
| COc1nc(C(F)(F)F)nc2c1CN(C(=O)CC1CN(c3cccnc3)C1)C2 [Compound I-78, 1-(4-Methoxy-2-(trifluoromethyl)-5,7-dihydro-6H-pyrrolo[3,4-d]pyrimidin-6-yl)-2-(1-(pyridin-3-yl)azetidin-3-yl)ethan-1-one] | 0.1 to 0.5 | 0.5 to 2 |
| COc1nc(C)nc2c1CN(C(=O)CC1CN(c3cccnc3)C1)C2 [Compound I-41, 1-(4-Methoxy-2-methyl-5,7-dihydro-6H-pyrrolo[3,4-d]pyrimidin-6-yl)-2-(1-(pyridin-3-yl)azetidin-3-yl)ethan-1-one] | 0.1 to 0.5 | 0.5 to 2 |
| COc1nc(C#N)nc2c1C(C)N(C(=O)CC1CN(c3cc(F)cc(F)c3)C1)C2 (single isomer, unassigned) [Compound I-10, 6-(2-(1-(3,5-Difluorophenyl)azetidin-3-yl)acetyl)-4-methoxy-5-methyl-6,7-dihydro-5H-pyrrolo[3,4-d]pyrimidine-2-carbonitrile] | ≥ 2 | ≥ 2 |
| COc1nc(C#N)nc2c1C(C)N(C(=O)CC1CN(c3cc(F)cc(F)c3)C1)C2 (single isomer, unassigned) [Compound I-9, 6-(2-(1-(3,5-Difluorophenyl)azetidin-3-yl)acetyl)-4-methoxy-5-methyl-6,7-dihydro-5H-pyrrolo[3,4-d]pyrimidine-2-carbonitrile] | ≤ 0.1 | ≤ 0.1 |
| COc1nc(C)nc2c1CN(C(=O)CC1CN(c3ccnc(C(F)(F)F)c3)C1)C2C (racemic) [Compound I-61, 1-(4-Methoxy-2,7-dimethyl-5,7-dihydro-6H-pyrrolo[3,4-d]pyrimidin-6-yl)-2-(1-(2-(trifluoromethyl)pyridin-4-yl)azetidin-3-yl)ethan-1-one] | 0.5 to 2 | 0.5 to 2 |
| COc1nc(C#N)nc2c1C(C)N(C(=O)CC1C(C)N(c3ccnc(C(F)(F)F)c3)C1C)C2 (centres unmarked) [Compound I-40, 6-(2-(2,4-Dimethyl-1-(2-(trifluoromethyl)pyridin-4-yl)azetidin-3-yl)acetyl)-4-methoxy-5-methyl-6,7-dihydro-5H-pyrrolo[3,4-d]pyrimidine-2-carbonitrile] | 0.5 to 2 | 0.1 to 0.5 |
| CNc1nc(C)nc2c1CN(C(=O)CC1CN(c3cccnc3)C1)C2 [Compound I-72, 1-(2-Methyl-4-(methylamino)-5,7-dihydro-6H-pyrrolo[3,4-d]pyrimidin-6-yl)-2-(1-(pyridin-3-yl)azetidin-3-yl)ethan-1-one] | 0.5 to 2 | ≥ 2 |
| COc1nc(OC(F)F)nc2c1CN(C(=O)CC1CN(c3cccnc3)C1)C2 [Compound I-80, 1-(2-(Difluoromethoxy)-4-methoxy-5,7-dihydro-6H-pyrrolo[3,4-d]pyrimidin-6-yl)-2-(1-(pyridin-3-yl)azetidin-3-yl)ethan-1-one] | 0.5 to 2 | ≥ 2 |
| COc1nc(C#N)nc2c1C(C)N(C(=O)CC1CN(c3cccc(C(F)(F)F)c3)C1)C2 (single isomer, unassigned) [Compound I-16, 4-Methoxy-5-methyl-6-(2-(1-(3-(trifluoromethyl)phenyl)azetidin-3-yl)acetyl)-6,7-dihydro-5H-pyrrolo[3,4-d]pyrimidine-2-carbonitrile] | 0.1 to 0.5 | 0.1 to 0.5 |
| COc1nc(C2COC2)nc2c1CN(C(=O)CC1CN(c3ccnc(C(F)(F)F)c3)C1)C2 [Compound I-77, 1-(4-Methoxy-2-(oxetan-3-yl)-5,7-dihydro-6H-pyrrolo[3,4-d]pyrimidin-6-yl)-2-(1-(2-(trifluoromethyl)pyridin-4-yl)azetidin-3-yl)ethan-1-one] | ≥ 2 | ≥ 2 |
| COc1nc(C)nc2c1C(C)N(C(=O)CC1CN(c3cncnc3)C1)C2 (single isomer, unassigned) [Compound I-59, 1-(4-Methoxy-2,5-dimethyl-5,7-dihydro-6H-pyrrolo[3,4-d]pyrimidin-6-yl)-2-(1-(pyrimidin-5-yl)azetidin-3-yl)ethan-1-one] | ≤ 0.1 | 0.5 to 2 |
